The text below walks through data of the NIST ThermoML archive (doi:10.1016/j.fluid.2011.11.011).

The series can be described thus: an = ratio of the nth substance listed. The settings on record: 275 K, Pendant drop shape.

Numbers after ± are expanded uncertainties.

For `CCCCCCCCCCCCOS(=O)(=O)[O-].[Li+]` [lithium dodecyl sulfate] + O, the surface tension liquid-gas is listed as 56.6 ± 1.8 mN/m (a1 = 500); 53.1 ± 1.7 mN/m (a1 = 1000); 41.2 ± 1.3 mN/m (a1 = 2000); 38.9 ± 1.2 mN/m (a1 = 2500); 37.3 ± 1.2 mN/m (a1 = 3000); 37 ± 1.2 mN/m (a1 = 3500). Further, the surface tension liquid-gas (a1 = 4000) is 36.7 ± 1.2 mN/m and the surface tension liquid-gas (a1 = 5000) is given as 36.7 ± 1.2 mN/m.

Regarding `O` [water] + CCCCCCCCCCCCOS(=O)(=O)[O-].[Li+], the surface tension liquid-gas (a2 = 0) worked out at 72.7 ± 2.3 mN/m.
